In patent US20050042300A1, “Use of colostrinin, constituent peptides thereof, and analogs thereof as inhibitors of apoptosis and other cellular damage” (priority 2002, published 2005):

Columns and labels:
Type in all cases: cell-based
JNK = experiment: 4HNE-induced JNK phosphorylation, Western blot with anti-phospho-(Thr-183/Tyr-185) JNK antibody; settings: PC12 cells
Description: Western blot analysis: PC12 cells were plated at 7×10^6 cells/T75 flask. After exposure to 4HNE, colostrinin or their combination, cells were collected and lysed in 50 millimolar (mM) Tris, 5 mM EDTA, 150 mM NaCI, 0.5% NP-40, 10% glycerol and protease inhibitor cocktail (supplemented with 1 mM Na3VO4, 2 mM EDTA, 1 mM phenylmethylsulfonyl fluoride). Lysates were centrifuged at 14,000 g for 10 minutes (min) (4° C.) and 40 μg of protein was fractionated on a 10% SDS-polyacrylamide gel and transferred to protein-optimized membranes (Amersham, Inc.). p53 was detected using specific antibody (DO1; Santa Cruz Biotechnology, Inc.) at a dilution of 1:300. Adducts were detected using an antibody to HNE-protein adducts (Pharmingen, Inc.) at a dilution of 1:500. The anti-phospho-JNK antibody (New England Biolabs, Inc., Beverly, Mass.) was raised against a synthetic phosphopeptide (SFMMT*PY*VVTRYYR) corresponding to residues 179-193 of JNK. […]
The effect of CLN on 4HNE-induced activation of JNK in PC12 cells was investigated. The activation of JNK was monitored by Western blot analysis using a highly specific anti-phospho- (Thr-183/Tyr-185) JNK antibody (Materials and Methods).

PC12 cells = experiment: 4HNE-induced apoptosis, annexin V-PE / 7-AAD flow cytometry
Text: Apoptosis is a specific mode of cell death recognized by a characteristic pattern of morphological, biochemical, and molecular changes. Currently the hallmark of apoptosis in vitro is DNA fragmentation and changes in plasma membrane reorganization that allows for the surface expression of phosphatidyl-D-serine and result in increased membrane permeability. The protection of cells against 4HNE by CLN using increased permeability and cell membrane expression of phosphatidyl-D-serine was investigated.
Cells were simultaneously labeled with fluorochrome-conjugated annexin V-PE (detecting PS asymmetry in the plasma membrane, an early marker of apoptosis), 7-aminoactinomycin D (7-AAD) (detecting increased membrane permeability associated with both apoptosis and necrosis). A dual laser flow cytometer (either a Becton-Dickinson FACScan) was used for the simultaneous detection of the PE-conjugated annexin V (which is excited at […]), 7-AAD (excited at 488 nm and emitting at 670 nm). Fluorochrome compatibility was excellent, although careful intralaser compensation is required for simultaneous use of PE and 7-AAD.

[1] = tested on: intracellular GSH levels in PC12 cells; experiment: Intracellular glutathione (GSH), o-phthalaldehyde fluorescence
Description: Measurement of glutathione (GSH): In brief, PC12 cells were mock- or pre-treated with CLN or lactalbumin hydrolysate (LAH), both in 10 μg/ml concentration and then exposed to 4HNE (25 nM). PBS-washed (twice) cells were then extracted with 25% (w/v) metaphosphoric acid solution containing 5 mM EDTA. After ultracentrifugation (105,000 g for 30 min), 100 μl of 100 mM phosphate solution (pH 8.0) containing 5 mM EDTA and 10 μl of o-phthalaldehyde OPA(OPD; Molecular Probes, Inc.) was added to the supernatant, and the fluorescence intensity at 420 nm determined with excitation set at 350 nm (A. P. Senft et al., Anal Biochem., 280:80-86 (2000)).
To investigate whether the anti-oxidant effect of CLN was due to protection of intracellular GSH levels, PC12 cells were pre-treated (with CLN or LAH) and exposed to 4HNE, as described above, and changes in GSH levels were determined fluorimetrically. […] OPA (o-phthalaldehyde or phthalic dicarboxaldehyde) is highly fluorescent when it is conjugated to GSH (A. P. Senft et al., Anal Biochem., 280:80-86 (2000)).

[2] = tested on: GSH extrusion from PC12 cells; experiment: Reduced GSH in extracellular fluid (GSH extrusion), OPA-GSH fluorescence; settings: 4HNE, relative to CLN- or mock-treated cells, data not shown
Description: To determine whether the loss of intracellular GSH was due to it's extrusion from the cells or oxidation, the level of reduced GSH in the extra-cellular fluid was evaluated.

[3] = tested on: 4HNE-protein adducts in PC12 cells; experiment: 4HNE-protein adduct formation, immunocytochemistry / fluorescent microscopy
Text: Cell cultures: Pheochromocytoma (PC12) cells were provided by Dr. Regino Perez-Polo (University of Texas Medical Branch, Department of Human Biological Chemistry and Genetics) and maintained in EMEM supplemented with 10% fetal bovine serum, penicillin (100 IU/ml) and streptomycin (100 micrograms per milliliter (μg/ml)). Exponentially growing populations of PC12 cells were sub-cultured and used for all experiments. Immunocytochemistry: […] Cells were permeabilized by 0.3% Triton X-100, washed in PBS then incubated with primary antibody in PBS containing 0.05% Tween 20 (PBS-T). After washing 3 times in PBS-T, FITC-labeled anti-rabbit IgG (Santa Cruz Biotechnology Inc.) was added. Cells were washed (5 times, for 10 min) with PBS-T and mounted on microscope slides in anti-fade solution (Dako, Inc.). Images of cellular immunofluorescence were acquired using a NIKON Eclipse TE300 scanning microscope. Fluorescent microscopy and Western blot analysis was undertaken to investigate the extent of 4HNE protein-adduct formation in cultures of PC12 cells in the presence of CLN. Cells were pretreated with CLN or LAH in the presence or absence of 4HNE and then analyzed for the formation of 4HNE-protein adducts.

[4] = tested on: 4HNE-protein adducts in PC12 cells; experiment: 4HNE-protein adduct levels, Western blot analysis; settings: 4HNE alone 25, 12.5, 6.2 nM
Description: (§1) Western blot analysis: PC12 cells were plated at 7×10^6 cells/T75 flask. After exposure to 4HNE, colostrinin or their combination, cells were collected and lysed in 50 millimolar (mM) Tris, 5 mM EDTA, 150 mM NaCI, 0.5% NP-40, 10% glycerol and protease inhibitor cocktail (supplemented with 1 mM Na3VO4, 2 mM EDTA, 1 mM phenylmethylsulfonyl fluoride). Lysates were centrifuged at 14,000 g for 10 minutes (min) (4° C.) and 40 μg of protein was fractionated on a 10% SDS-polyacrylamide gel and transferred to protein-optimized membranes (Amersham, Inc.). p53 was detected using specific antibody (DO1; Santa Cruz Biotechnology, Inc.) at a dilution of 1:300. Adducts were detected using an antibody to HNE-protein adducts (Pharmingen, Inc.) at a dilution of 1:500. The anti-phospho-JNK antibody (New England Biolabs, Inc., Beverly, Mass.) was raised against a synthetic phosphopeptide (SFMMT*PY*VVTRYYR) corresponding to residues 179-193 of JNK. For visualization of primary antibody binding, all blots were incubated with horseradish peroxidase-conjugated secondary antibody (Amersham, Inc.) at a dilution of 1:2000, followed by chemiluminescence detection (Amersham, Inc.) and autoradiography.
To confirm the results generated by immunochemistry, Western blot analysis was used to investigate changes in 4HNE-protein adduct levels in cells treated with 4HNE alone or CLN plus 4HNE.

p53 = experiment: 4HNE-induced activation of p53, Western blot; settings: PC12 cells; 4HNE alone
Description: as §1
Whether CLN could modulate p53 levels after 4HNE exposure was also investigated.

SH-SY5Y cells = experiment: Protection against retinoic acid toxicity in SH-SY5Y cells, graded under the microscope; settings: for DIFFERENTIATION: Retinoic Acid 20 μM (Day 1) alone
Description: Retinoic Acid was left on the plate for the duration of the experiment or until washed off. Colostrinin was added to the plate at the indicated doses. When added on Day 1, it was present during the entire experiment. When added on Day 5, it was incubated on the plate for 30 minutes at 37° C. and then removed. The wells were washed twice with PBS before adding β-Amyloid. Cultures were then observed under the microscope and graded.

SMILES: CCCCCC(O)/C=C/C=O (stereo not drawn) [4HNE]
- JNK phosphorylation (JNK; 4HNE 25 nM alone): potent inducer of JNK phosphorylation
- toxic effects / apoptosis (PC12 cells; 4HNE 25 nM): did not show toxic effects or induce apoptosis
- apoptosis (PC12 cells; 4HNE 100 nM): Induction of apoptosis
- loss of GSH ([1]; 25 nM 4HNE): more than 50%
- intracellular GSH levels (OPA-GSH fluorescence) ([1]; 4HNE 25 nM alone, 30 min): significant reduction
- OPA-GSH-mediated fluorescence of extracellular fluid [2]: significant increase
- fluorescence due to antibody binding to 4HNE-protein adducts ([3]; 4HNE 25 nM alone): bright fluorescence
- levels of 4HNE-protein adducts (Western blot) [4]: significant increase
- activation of p53 (p53): induced its activation

SMILES: Nc1ncnc2c1nc(Sc1ccc(Cl)cc1)n2[C@@H]1O[C@@H]2COP(=O)(O)O[C@H]2[C@H]1O [8-(4-chlorophenylthio)-cAMP]
- 4HNE-induced JNK phosphorylation (JNK; pretreatment with inhibitor of JNK activation, 4HNE): prevented 4HNE-induced JNK phosphorylation

SMILES: OO [H2O2]
- fluorescence due to antibody binding to 4HNE-protein adducts ([3]; H2O2 100 μM): bright fluorescence

SMILES: CC1=C(/C=C/C(C)=C/C=C/C(C)=C/C(=O)O)C(C)(C)CCC1 [Retinoic Acid]
- DIFFERENTIATION (SH-SY5Y cells; observed Day 2): ++++ (Approximately 100% of the cells)
- DIFFERENTIATION (SH-SY5Y cells; observed Day 8): + (Approximately 25% of the cells)
- onset of toxicity of retinoic acid (SH-SY5Y cells; SH-SY5Y cells, retinoic acid 20 μM): started showing signs of toxicity by day 6
- toxicity of retinoic acid (SH-SY5Y cells; SH-SY5Y cells, retinoic acid 40 μM): toxicity developed too rapidly
